Measurements taken from patent US20240245702A1, “Inhibition of Lysine Demethylase 1 (Lsd1) Induces Differentiation of Hair Cells” (Massachusetts Eye and Ear Infirmary, priority 2018, published 2024).

How the values were obtained:
Format in all cases: cell-based, mouse
[1] = tested on: LCP organoids; experiment: Immunostaining of differentiated organoids for Atoh1 and Myo7a
Description: Immunochemistry. […] Nuclei were visualized using DAPI (Vector Laboratories).

[2] = tested on: Atoh1; experiment: qRT-PCR of Atoh1 in differentiated LCP organoids; details: D10, pargyline-treated cells relative to standard treatment
Description: Differentiation of LCPs into a hair cell lineage. […] To analyze the effect of the Lsd1 inhibitors, the LCPs were treated with the small molecules combined with a differentiation drug cocktail, pargyline and CHIR99021 or CHIR99021 at 1, 2, 4, and 10 days (McLean et al., 2017).
RNA extraction and PCR. For the LCPs, the organoids were treated with Cell Recovery Solution for at 1 hour and TrypleE for 20 minutes, then frozen in RLT buffer. RNA extractions were performed using the RNeasy Micro Kit (QIAGEN) and cDNA generated using ImProm-II Reverse Transcription Kit (Promega). TaqMan Real-Time PCR was performed in triplicates using the TaqMan Gene Expression Master Mix (ThermoFisher Scientific) on a StepOne Real-Time PCR machine (ThermoFisher Scientific). Ordinary One-way Anova was used to assess statistical significance. A minimum of three biologically distinct samples were analyzed for each condition.
We next tested the effect of Lsd1 inhibition on hair cell differentiation. In this assay, after the cells were expanded into organoids during the initial proliferation phase, differentiation was initiated using the combination of CHIR99021 and LY411575 and allowed to progress for 10 days (DO to D10). Organoids were monitored for the development of hair cells using FACS and qRT-PCR. […] Conversely, Myo7a expression increases throughout development and is a key marker of mature hair cells. […]

[3] = tested on: LCPs; experiment: RNA sequencing of LCP organoids with and without pargyline
Description: RNA sequencing. After RNA extractions were performed using the RNeasy Micro Kit (QIAGEN), the library preparation and RNA-sequencing was performed at the Dana Farber Cancer Institute Molecular Biology Core Facility. In brief, cDNA was synthesized from 2.5 ng of RNA using SMARTer V4 Kit (Clontech). Following fragmentation using M220 Focused-Ultrasonicator (Covaris), 2 ng of sheared cDNA was taken for library preparation using ThruPLEX DNA-seq kit (Rubicon Genomics). NextSeq500 Single-End 75 bp (SE75) Sequencing (Illumina) was performed on all 12 samples in one lane after they were indexed and pooled in equimolar to ensure 20-30 million reads per sample. Reads were aligned to mm10 augmented with Ensembl gene build 75 with STAR v2.5.2b (Dobin et al., 2013). Reads and alignments were assessed for quality using FastQC. Differential expression was evaluated using DESeq2. Genes were called differentially expressed when the absolute value of the fold change was >1.25 and FDR, was smaller than 0.05. Subsequent pathway analysis was performed using Ingenuity Pathway Analysis software (Qiagen).
The effect of pargyline on the differentiation of hair cells could be broad and we therefore evaluated its effect on the gene expression patterns of Lsd1 inhibitor-treated and untreated samples. The samples analyzed included the undifferentiated organoids following expansion (DO) and the differentiated organoids following 10 days of differentiation, with and without pargyline treatment (D10). […] In addition, 90% of the genes aligned to the genome and over 22,000 genes were detected in each sample. […] The times here refer to the beginning and end of differentiation and the finding was that most of the difference between samples was due to the 10 days of differentiation. Consistently, the principle component analysis (PCA) clustered the samples by the time of differentiation (responsible for 62% of the variation between samples) and the treatment (20% of the variation: FIG. 10B). Lsd1 inhibition in the presence of CHIR99021 altered gene expression and caused the pargyline-treated samples to cluster separately from those treated with CHIR99021 alone.
Differential expression analysis of the samples was also performed using DESeq2 (Love et al., 2014). […] We further compared the gene expression profiles of the samples. Compared to the undifferentiated (DO), approximately […]) and 3365 genes were differentially expressed in the D10 or D10+pargyline samples, respectively. The addition of pargyline compared to the untreated samples altered the expression of approximately 474 genes (padj<0.05, fold change >1.25).
Gene set enrichment analysis (GSEA) using gene sets associated with biological process gene ontology terms (Subramanian et al., 2005) was next performed to gain insight into the relevant pathways altered in this dataset. The analysis accounts for coordinated differential expression over pre-defined gene sets, instead of changes in individual genes. Pathways related to the cell cycle and proliferation were the most enriched after pargyline treatment, particularly the p53 and PI3/AKT, MAPK and RAS pathways (−0.503, −0.33). although these cells were in the differentiation phase. […] Here we present the top 15 differentially expressed hair cell receptor genes. […] Collectively, these findings corroborate increasing hair cell differentiation with Lsd1 inhibition.

[4] = tested on: Lgr5-expressing cochlear progenitors cells (LCPs); experiment: Proliferation of Lgr5+ cochlear progenitors (LCPs) in organoid culture; details: first 10 days in culture, Lgr5-nGFP mice cells, combined with CHIR99021
Description: Isolation and expansion of inner ear Lgr5+ cells. A recently published protocol was used to derive organoids from inner ear stem cells [also referred to as Lgr5+ cochlear progenitors (LCPs) (McLean et al., 2017). Briefly, the organ of Corti was dissected from neonatal mice (postnatal days 2-5) in Hank's balanced salt solution and treated with Cell Recovery Solution (Corning) for 1 hour. The cochlear epithelium was then peeled from the underlying mesenchyme, collected and treated with TrypleE for 20 minutes at 37° C. The single cells were mechanically triturated, filtered ([…] cell strainer) and suspended in a Matrigel (Corning) dome for 3D culture. The cells were seeded in a 24-well plate, specifically at one cochlea per well of a 24-well plate.
For the drug screening experiments, the expanded cells were passaged into a 96 well plate to test varying drug combinations. All experiments were done in triplicate at minimum. Atoh1-nGFP cells were quantified after 10 days in culture. The cell colonies were incubated in Cell Recovery Solution for 1 hour and dissociated into single cells using TrypleE. The total cell number and percentage of GFP+ cells were quantified using fluorescence activated cell sorting (FACS).
We screened a collection of Lsd1 inhibitors over the first 10 days in culture (FIGS. 9A and 9B) to examine their effect on proliferation of LCPs (FIGS. 9C and 9D). […]

[5] = D10 with pargyline compared to untreated
[6] = pargyline-treated samples, p<0.05

With `C#CCN(C)Cc1ccccc1` [pargyline, N-Methyl-N-propargylbenzylamine] the “immunostaining for Atoh1 and Myo7a” value [1] was “almost uniformly positive”, the “mRNA levels of Atoh1” value [2] was “no difference” and the “genes differentially expressed compared to the undifferentiated (D0)” value ([3]; D10+pargyline samples versus D0) was roughly 3365 genes. For the same molecule, the genes downregulated [3, 5] was 330 genes, the genes upregulated [3, 5] was 144 genes and the “genes with altered expression” value ([3]; D10 with pargyline compared to untreated, padj<0.05, fold change >1.25) was “approximately 474 genes”. For the same molecule, the “gene set enrichment score, development of auditory receptors (GO:0060117)” value ([3]; GSEA after pargyline treatment, p<0.1) was 0.62, the “top 15 differentially expressed Wnt target genes: number downregulated” value [3, 6] was 13 genes and the “top 15 differentially expressed Wnt target genes: number upregulated” value [3, 6] was 2 genes. The “proliferation of Lgr5 cells (LCP cell division)” value [4] was 26%.
